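96-well plates; 48 h exposure; 5 concentrations. Endpoints by linear interpolation between flanking doses. Not reached: highest tested concentration assigned. At the TGI there is no net growth.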
Legend:
Experiment in all cases: growth of human tumour cells (NCI), 48 h
A549 NSCLC = tested on: A549 NSCLC
OVCAR-4 ovarian = tested on: OVCAR-4 ovarian
IGROV1 ovarian = tested on: IGROV1 ovarian
KM20L2 colon = tested on: KM20L2 colon
SF-539 CNS = tested on: SF-539 CNS
U251 CNS = tested on: U251 CNS
MALME-3M melanoma = tested on: MALME-3M melanoma
SF-268 CNS = tested on: SF-268 CNS
SK-OV-3 ovarian = tested on: SK-OV-3 ovarian
NCI-H226 lung = tested on: NCI-H226 lung
OVCAR-5 ovarian = tested on: OVCAR-5 ovarian
LXFL 529 NSCLC = tested on: LXFL 529 NSCLC
HT29 colon = tested on: HT29 colon
SNB-78 CNS = tested on: SNB-78 CNS
SK-MEL-5 melanoma = tested on: SK-MEL-5 melanoma
SNB-19 CNS = tested on: SNB-19 CNS
SW-620 colon = tested on: SW-620 colon
RXF-631 renal = tested on: RXF-631 renal
DLD-1 colon = tested on: DLD-1 colon
RPMI-8226 leukemia = tested on: RPMI-8226 leukemia
HOP-18 NSCLC = tested on: HOP-18 NSCLC
SR leukemia = tested on: SR leukemia
OVCAR-8 ovarian = tested on: OVCAR-8 ovarian
NCI-H460 lung = tested on: NCI-H460 lung
786-0 renal = tested on: 786-0 renal
NCI-H23 lung = tested on: NCI-H23 lung
COLO 205 colon = tested on: COLO 205 colon
SNB-75 CNS = tested on: SNB-75 CNS
OVCAR-3 ovarian = tested on: OVCAR-3 ovarian
HCT-15 colon = tested on: HCT-15 colon
SK-MEL-28 melanoma = tested on: SK-MEL-28 melanoma
UACC-62 melanoma = tested on: UACC-62 melanoma
CAKI-1 renal = tested on: CAKI-1 renal
SN12C renal = tested on: SN12C renal
DMS 114 small cell lung = tested on: DMS 114 small cell lung
DMS 273 small cell lung = tested on: DMS 273 small cell lung
LOX IMVI melanoma = tested on: LOX IMVI melanoma
HOP-62 NSCLC = tested on: HOP-62 NSCLC
M19-MEL melanoma = tested on: M19-MEL melanoma
SK-MEL-2 melanoma = tested on: SK-MEL-2 melanoma
TK-10 renal = tested on: TK-10 renal
UACC-257 melanoma = tested on: UACC-257 melanoma
HOP-92 NSCLC = tested on: HOP-92 NSCLC
A498 renal = tested on: A498 renal
ACHN renal = tested on: ACHN renal
HCT-116 colon = tested on: HCT-116 colon
EKVX NSCLC = tested on: EKVX NSCLC
RXF 393 renal = tested on: RXF 393 renal
SF-295 CNS = tested on: SF-295 CNS
UO-31 renal = tested on: UO-31 renal
MOLT-4 leukemia = tested on: MOLT-4 leukemia
HCC-2998 colon = tested on: HCC-2998 colon
M14 melanoma = tested on: M14 melanoma
K-562 leukemia = tested on: K-562 leukemia
CCRF-CEM leukemia = tested on: CCRF-CEM leukemia
KM12 colon = tested on: KM12 colon
XF 498 CNS = tested on: XF 498 CNS
NCI-H522 lung = tested on: NCI-H522 lung
HL-60(TB) leukemia = tested on: HL-60(TB) leukemia

## Cc1ccc(NC(=O)/C(=N/NC(=O)C[N+](C)(C)C)c2nc3ccccc3[nH]c2=O)cc1
A549 NSCLC
  TGI: > 100 µM
OVCAR-4 ovarian
  TGI: > 100 µM
IGROV1 ovarian
  TGI: > 100 µM
KM20L2 colon
  TGI: > 100 µM
SF-539 CNS
  TGI: > 100 µM
U251 CNS
  TGI: 85.3 µM
MALME-3M melanoma
  TGI: > 100 µM
SF-268 CNS
  TGI: > 100 µM
SK-OV-3 ovarian
  TGI: > 100 µM
NCI-H226 lung
  TGI: > 100 µM
OVCAR-5 ovarian
  TGI: > 100 µM
LXFL 529 NSCLC
  TGI: > 100 µM
HT29 colon
  TGI: > 100 µM
SNB-78 CNS
  TGI: > 100 µM
SK-MEL-5 melanoma
  TGI: > 100 µM
SNB-19 CNS
  TGI: > 100 µM
SW-620 colon
  TGI: 33.8 µM
RXF-631 renal
  TGI: > 100 µM
DLD-1 colon
  TGI: > 100 µM
RPMI-8226 leukemia
  TGI: > 100 µM
HOP-18 NSCLC
  TGI: > 100 µM
SR leukemia
  TGI: > 100 µM
OVCAR-8 ovarian
  TGI: > 100 µM
NCI-H460 lung
  TGI: > 100 µM
786-0 renal
  TGI: > 100 µM
NCI-H23 lung
  TGI: > 100 µM
COLO 205 colon
  TGI: > 100 µM
SNB-75 CNS
  TGI: > 100 µM
OVCAR-3 ovarian
  TGI: > 100 µM
HCT-15 colon
  TGI: > 100 µM
SK-MEL-28 melanoma
  TGI: > 100 µM
UACC-62 melanoma
  TGI: > 100 µM
CAKI-1 renal
  TGI: > 100 µM
SN12C renal
  TGI: > 100 µM
DMS 114 small cell lung
  TGI: > 100 µM
DMS 273 small cell lung
  TGI: > 100 µM
LOX IMVI melanoma
  TGI: > 100 µM
HOP-62 NSCLC
  TGI: > 100 µM
M19-MEL melanoma
  TGI: > 100 µM
SK-MEL-2 melanoma
  TGI: > 100 µM
TK-10 renal
  TGI: > 100 µM
UACC-257 melanoma
  TGI: > 100 µM
HOP-92 NSCLC
  TGI: > 100 µM
A498 renal
  TGI: > 100 µM
ACHN renal
  TGI: > 100 µM
HCT-116 colon
  TGI: > 100 µM
EKVX NSCLC
  TGI: > 100 µM
RXF 393 renal
  TGI: > 100 µM
SF-295 CNS
  TGI: > 100 µM
UO-31 renal
  TGI: > 100 µM
MOLT-4 leukemia
  TGI: > 100 µM
HCC-2998 colon
  TGI: > 100 µM
M14 melanoma
  TGI: > 100 µM

## Cc1ccc(/C=C/C(=O)c2ccc([N+](=O)[O-])cc2)cc1
K-562 leukemia
  TGI: > 100 µM
A549 NSCLC
  TGI: > 100 µM
OVCAR-4 ovarian
  TGI: > 100 µM
IGROV1 ovarian
  TGI: > 100 µM
KM20L2 colon
  TGI: > 100 µM
SF-539 CNS
  TGI: > 100 µM
U251 CNS
  TGI: > 100 µM
MALME-3M melanoma
  TGI: > 100 µM
SF-268 CNS
  TGI: > 100 µM
SK-OV-3 ovarian
  TGI: > 100 µM
NCI-H226 lung
  TGI: > 100 µM
OVCAR-5 ovarian
  TGI: > 100 µM
CCRF-CEM leukemia
  TGI: > 100 µM
LXFL 529 NSCLC
  TGI: > 100 µM
HT29 colon
  TGI: > 100 µM
KM12 colon
  TGI: > 100 µM
SNB-78 CNS
  TGI: > 100 µM
SK-MEL-5 melanoma
  TGI: > 100 µM
SNB-19 CNS
  TGI: > 100 µM
SW-620 colon
  TGI: > 100 µM
RXF-631 renal
  TGI: > 100 µM
DLD-1 colon
  TGI: > 100 µM
XF 498 CNS
  TGI: > 100 µM
HOP-18 NSCLC
  TGI: > 100 µM
SR leukemia
  TGI: > 100 µM
OVCAR-8 ovarian
  TGI: > 100 µM
NCI-H460 lung
  TGI: > 100 µM
786-0 renal
  TGI: > 100 µM
NCI-H23 lung
  TGI: 99.8 µM
COLO 205 colon
  TGI: > 100 µM
SNB-75 CNS
  TGI: > 100 µM
OVCAR-3 ovarian
  TGI: > 100 µM
HCT-15 colon
  TGI: > 100 µM
SK-MEL-28 melanoma
  TGI: > 100 µM
UACC-62 melanoma
  TGI: > 100 µM
CAKI-1 renal
  TGI: > 100 µM
SN12C renal
  TGI: > 100 µM
DMS 273 small cell lung
  TGI: > 100 µM
NCI-H522 lung
  TGI: > 100 µM
LOX IMVI melanoma
  TGI: > 100 µM
HOP-62 NSCLC
  TGI: > 100 µM
M19-MEL melanoma
  TGI: > 100 µM
SK-MEL-2 melanoma
  TGI: > 100 µM
TK-10 renal
  TGI: > 100 µM
UACC-257 melanoma
  TGI: > 100 µM
A498 renal
  TGI: 19.1 µM
ACHN renal
  TGI: > 100 µM
HCT-116 colon
  TGI: > 100 µM
EKVX NSCLC
  TGI: > 100 µM
RXF 393 renal
  TGI: > 100 µM
SF-295 CNS
  TGI: > 100 µM
UO-31 renal
  TGI: > 100 µM
HL-60(TB) leukemia
  TGI: > 100 µM
MOLT-4 leukemia
  TGI: > 100 µM
HCC-2998 colon
  TGI: > 100 µM
M14 melanoma
  TGI: > 100 µM

— PubChem BioAssay (NCI)
